# According to paper PMC10804612, “In vivo validation of psilacetin as a prodrug yielding modestly lower peripheral psilocin exposure than psilocybin” (Frontiers in Psychiatry, 2024):
# Experiments:
# head twitch responses = system: head twitch responses; design: method as in PMID 33860183; details: equimolar basis; cited from earlier work
# 5-HT2A receptor = system: 5-HT2A receptor; design: method as in PMID 36407948, PMID 33860183; details: in vitro; cited from earlier work
# [1] = Plasma psilocin by LC-MS/MS after intraperitoneal psilocybin or psilacetin fumarate
# [2] = cited from earlier work
SMILES,head twitch response potency (head twitch responses),"receptor potency, fold lower than that of psilocin (5-HT2A receptor)","k el ([1]; both, C57Bl6/J, mouse, plasma, ip)","half-life ([1]; both, C57Bl6/J, mouse, plasma, ip, psilocin half-life (T1/2), plasma psilocin from psilocybin or psilacetin, mice)","plasma psilocin concentration by 4 h after administration ([1]; lower limit of quantitation 0.1 ng/mL, approximately 6 half-lives)","psilocin half-life ([1]; plasma psilocin, mice)","terminal elimination rate of psilocin, range ([1]; range across tested conditions)",plasma concentrations in human pharmacokinetic studies [2]
"CC(=O)Oc1cccc2[nH]cc(CCN(C)C)c12 [psilacetin, 4-acetoxy-N,N-dimethyltryptamine]",1.12 µmol/kg,10- to 20 fold,,,,,,
CN(C)CCc1c[nH]c2cccc(O)c12 [psilocin],0.81 µmol/kg,,0.000433 s⁻¹,~30 min,near or below the lower limit of quantitation,approximately one-half,0.020–0.038 min^1,
CN(C)CCc1c[nH]c2cccc(OP(=O)(O)O)c12 [psilocybin],,,,,,,,5 to 50 ng/mL
